The target of data set [1] is T1, Angiotensin-converting enzyme (Rattus norvegicus, UniProt P47820).
T1 sequence (P47820 whole entry): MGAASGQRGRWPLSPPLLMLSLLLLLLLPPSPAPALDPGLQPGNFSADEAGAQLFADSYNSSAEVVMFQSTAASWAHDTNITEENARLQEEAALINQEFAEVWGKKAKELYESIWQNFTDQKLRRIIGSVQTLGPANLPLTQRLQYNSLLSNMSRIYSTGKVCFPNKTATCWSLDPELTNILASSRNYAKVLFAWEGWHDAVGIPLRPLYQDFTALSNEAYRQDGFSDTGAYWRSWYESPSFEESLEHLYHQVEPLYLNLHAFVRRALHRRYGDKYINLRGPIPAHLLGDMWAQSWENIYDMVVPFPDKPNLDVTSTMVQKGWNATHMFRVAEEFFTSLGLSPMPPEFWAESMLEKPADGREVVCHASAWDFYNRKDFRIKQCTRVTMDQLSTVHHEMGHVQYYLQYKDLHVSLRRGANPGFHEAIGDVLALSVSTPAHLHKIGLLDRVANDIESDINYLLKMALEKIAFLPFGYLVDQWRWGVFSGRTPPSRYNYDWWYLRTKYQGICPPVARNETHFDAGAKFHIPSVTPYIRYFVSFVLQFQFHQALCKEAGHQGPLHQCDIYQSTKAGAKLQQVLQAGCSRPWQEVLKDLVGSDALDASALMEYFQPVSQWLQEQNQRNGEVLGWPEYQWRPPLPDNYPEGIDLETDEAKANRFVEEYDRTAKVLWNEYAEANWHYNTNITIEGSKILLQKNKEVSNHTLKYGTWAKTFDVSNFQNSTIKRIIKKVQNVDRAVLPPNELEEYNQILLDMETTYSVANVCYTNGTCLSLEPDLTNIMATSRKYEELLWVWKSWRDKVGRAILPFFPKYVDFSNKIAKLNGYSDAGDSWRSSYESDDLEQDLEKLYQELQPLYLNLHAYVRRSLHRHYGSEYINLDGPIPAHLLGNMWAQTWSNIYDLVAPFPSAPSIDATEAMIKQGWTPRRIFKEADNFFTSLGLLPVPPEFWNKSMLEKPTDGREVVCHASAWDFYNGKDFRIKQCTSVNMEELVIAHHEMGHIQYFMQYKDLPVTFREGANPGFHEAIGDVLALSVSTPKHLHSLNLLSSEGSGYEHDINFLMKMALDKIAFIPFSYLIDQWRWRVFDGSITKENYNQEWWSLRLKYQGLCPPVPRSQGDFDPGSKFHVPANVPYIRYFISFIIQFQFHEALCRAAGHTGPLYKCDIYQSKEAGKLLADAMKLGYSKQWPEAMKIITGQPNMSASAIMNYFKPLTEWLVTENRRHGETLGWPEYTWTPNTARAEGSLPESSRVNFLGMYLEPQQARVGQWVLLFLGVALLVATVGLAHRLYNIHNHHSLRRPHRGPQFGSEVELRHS
The data set is described as follows: Inhibition of Wistar rat plasma ACE.

A further data set concerns the target Dipeptidyl peptidase 4 (Homo sapiens, UniProt P27487). The data set is described as follows: Inhibition of human plasma DPP4.
A further data set has as its target Dipeptidyl peptidase 2 (Homo sapiens, UniProt Q9UHL4). Description: Inhibition of DPP2 (unknown origin).
In another data set the test system is Liver. The data set is described as follows: Stability in mouse liver microsomes. In kind it is ADME, microsome. On the technique in general: Liver microsomes are a subcellular fraction often used to study metabolism.
A short description of data set [2]: AUC (0 to infinity) in Wistar rat plasma at 30 mg/kg, po. It counts as ADME, organism-based. Also on record: dose 30 mg/kg, time infinity, route oral.
Data set [3] addresses T2, Angiotensin-converting enzyme (Mus musculus, UniProt P09470).
T2 sequence (P09470 whole entry): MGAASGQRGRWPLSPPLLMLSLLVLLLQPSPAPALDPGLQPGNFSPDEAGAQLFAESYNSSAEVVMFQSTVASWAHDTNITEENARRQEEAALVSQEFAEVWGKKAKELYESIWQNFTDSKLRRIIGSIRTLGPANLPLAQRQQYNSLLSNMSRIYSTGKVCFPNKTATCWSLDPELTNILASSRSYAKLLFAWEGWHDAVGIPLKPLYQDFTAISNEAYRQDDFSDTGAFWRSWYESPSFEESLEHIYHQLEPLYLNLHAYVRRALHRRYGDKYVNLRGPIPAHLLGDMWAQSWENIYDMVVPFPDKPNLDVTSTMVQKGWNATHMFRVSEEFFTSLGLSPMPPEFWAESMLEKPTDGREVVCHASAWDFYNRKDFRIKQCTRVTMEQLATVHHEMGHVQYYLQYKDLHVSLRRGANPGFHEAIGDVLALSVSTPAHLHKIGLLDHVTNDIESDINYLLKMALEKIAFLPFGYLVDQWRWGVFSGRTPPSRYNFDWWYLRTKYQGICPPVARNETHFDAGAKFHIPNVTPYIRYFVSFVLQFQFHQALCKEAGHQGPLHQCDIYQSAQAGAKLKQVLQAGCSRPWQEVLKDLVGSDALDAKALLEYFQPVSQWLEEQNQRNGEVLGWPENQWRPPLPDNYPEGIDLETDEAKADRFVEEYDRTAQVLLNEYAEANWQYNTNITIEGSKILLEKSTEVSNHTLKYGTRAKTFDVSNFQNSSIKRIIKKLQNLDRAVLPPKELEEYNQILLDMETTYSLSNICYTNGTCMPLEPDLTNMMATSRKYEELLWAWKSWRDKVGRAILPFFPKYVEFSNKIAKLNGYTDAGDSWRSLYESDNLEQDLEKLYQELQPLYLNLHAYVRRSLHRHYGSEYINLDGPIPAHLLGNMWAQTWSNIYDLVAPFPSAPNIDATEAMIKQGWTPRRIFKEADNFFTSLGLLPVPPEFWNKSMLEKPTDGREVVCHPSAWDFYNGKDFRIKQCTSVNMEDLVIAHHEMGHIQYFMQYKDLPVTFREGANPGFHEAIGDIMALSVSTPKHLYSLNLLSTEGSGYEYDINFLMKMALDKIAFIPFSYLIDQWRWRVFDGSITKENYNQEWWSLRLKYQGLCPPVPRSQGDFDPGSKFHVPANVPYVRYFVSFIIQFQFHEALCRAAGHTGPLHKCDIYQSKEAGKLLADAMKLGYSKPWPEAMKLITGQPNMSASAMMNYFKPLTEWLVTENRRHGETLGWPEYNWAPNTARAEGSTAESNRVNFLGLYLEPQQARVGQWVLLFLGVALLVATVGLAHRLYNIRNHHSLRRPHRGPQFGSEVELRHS
The data set is described as follows: Inhibition of ob/ob mouse plasma ACE.

Each structure is given as a SMILES string.

Dipeptidyl peptidase 4, sequence (P27487 whole entry): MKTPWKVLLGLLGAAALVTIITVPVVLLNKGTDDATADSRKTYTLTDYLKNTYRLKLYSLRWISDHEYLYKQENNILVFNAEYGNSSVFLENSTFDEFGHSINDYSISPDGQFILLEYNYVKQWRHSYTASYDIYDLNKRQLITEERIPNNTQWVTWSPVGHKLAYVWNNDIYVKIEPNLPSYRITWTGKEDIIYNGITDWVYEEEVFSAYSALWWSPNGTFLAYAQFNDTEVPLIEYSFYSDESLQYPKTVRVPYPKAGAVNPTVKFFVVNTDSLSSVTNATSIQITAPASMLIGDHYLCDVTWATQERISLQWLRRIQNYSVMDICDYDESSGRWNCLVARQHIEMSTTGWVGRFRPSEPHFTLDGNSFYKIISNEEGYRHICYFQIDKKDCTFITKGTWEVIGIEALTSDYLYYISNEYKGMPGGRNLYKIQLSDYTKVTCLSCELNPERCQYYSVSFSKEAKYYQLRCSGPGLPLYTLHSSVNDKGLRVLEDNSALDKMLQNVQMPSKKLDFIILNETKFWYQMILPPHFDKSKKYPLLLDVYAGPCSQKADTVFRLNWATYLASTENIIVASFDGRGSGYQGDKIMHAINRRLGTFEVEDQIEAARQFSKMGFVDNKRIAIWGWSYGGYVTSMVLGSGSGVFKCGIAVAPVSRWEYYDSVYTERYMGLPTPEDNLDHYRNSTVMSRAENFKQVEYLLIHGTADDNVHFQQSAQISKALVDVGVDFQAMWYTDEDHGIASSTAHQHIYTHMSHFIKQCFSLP

In the case of `C[C@H](N[C@@H](CCc1ccccc1)C(=O)O)C(=O)N1C[C@@H](NC(=O)C[C@H](N)Cc2cc(F)c(F)cc2F)C[C@H]1C(=O)O`, the 50% inhibitory concentration (IC50) in data set [1] is 0.334 µM; against Dipeptidyl peptidase 4, 0.255 µM; against Dipeptidyl peptidase 2 it was over 100 µM; in data set [3] it was 0.058 µM. Further, the Stability entry in the data set on Liver is on record as “Stable”. Further, in data set [2], the AUC(0-inf) is 1170 ng·h/mL.
Take `CCC[C@H](N[C@@H](CCc1ccccc1)C(=O)O)C(=O)N1C[C@@H](NC(=O)C[C@H](N)Cc2cc(F)c(F)cc2F)C[C@H]1C(=O)O`: the IC50 is 0.893 µM in data set [1], 0.067 µM at Dipeptidyl peptidase 4, over 100 µM at Dipeptidyl peptidase 2 and 2.02 µM in data set [3]. Moreover, in the data set with Liver, the Stability entry is “Stable”. Besides, the AUC(0-inf) in data set [2] was 23500 ng·h/mL.
As for `CC[C@H](N[C@@H](CCc1ccccc1)C(=O)O)C(=O)N1C[C@@H](NC(=O)C[C@H](N)Cc2cc(F)c(F)cc2F)C[C@H]1C(=O)O`, the half-maximal inhibitory concentration (IC50) in data set [1] was 0.024 µM; against Dipeptidyl peptidase 4, 0.057 µM; against Dipeptidyl peptidase 2 it was over 100 µM; in data set [3], 0.1 µM. For the same molecule, the Stability entry in the data set with Liver is listed as “Stable”. The same molecule registered a total exposure AUC(0-inf) in data set [2] of 2860 ng·h/mL.
On to `CCCC[C@H](N[C@@H](CCc1ccccc1)C(=O)O)C(=O)N1C[C@@H](NC(=O)C[C@H](N)Cc2cc(F)c(F)cc2F)C[C@H]1C(=O)O`, for which the IC50 in data set [1] is 2.8 µM; against Dipeptidyl peptidase 4 it was 0.102 µM; against Dipeptidyl peptidase 2, over 100 µM; in data set [3], 2.21 µM. Further, the Stability result with Liver is on record as “Stable”. In data set [2], this molecule yielded an AUC(0-inf) of 16800 ng·h/mL.

In general, IC50 refers to the concentration that gives 50% inhibition. Read a high IC50 as weaker potency. One may read the AUC(0-inf) as total exposure, with the tail of the curve extrapolated. Read a high AUC(0-inf) as more exposure.
